{"source": "patent US20230390315A1", "about": "“COMPOSITIONS AND METHODS FOR TREATING ISCHEMIC CONDITIONS” (The Regents of the University of California, priority 2020, published 2023)", "key": {"[1]": {"system": "ARPE-19 RPE cells", "experiment": "Human RPE cell proliferation assay", "type": "cell-based", "protocol": "Proliferation assays with fibroblasts were done in low-glucose DMEM containing 1% FBS, with or without 10 ng/ml bFGF, or 100 ng/ml human EGF and the assay was ended at day 3. ARPE-19 cells were gently lifted with 0.025% trypsin and plated in RtEGM media (Clonetics) containing 2% FBS, L-glutamine, human bFGF and GA-1000. Once cells were attached to plates, serum-free RtEGM media was used to maintain the cultures. For proliferation assays, 1500 human RPE cells were plated into 96-well plates in low-glucose DMEM containing 1% FBS. A673, U87MG, Calu6 and AML12 cells were grown until confluent and were then harvested and re-suspended in appropriate assay media. For proliferation assays, cells were plated at the density of 1000-2000 cells/well in low-glucose DMEM containing 5% FBS or otherwise stated. Bovine pituitary cells (pituitary folliculostellate cells) were isolated as previously described. For proliferation assays with human epidermal keratinocytes, human DMVECs and human dermal fibroblast cells, 1000 cells/well were plated in low-glucose DMEM containing 1% FBS with or without various growth factors. The assay was ended at day 3 for bovine pituitary cells and at day 4 for all the other cell types. […] Four days later, tumor cell growth was measured by the MTS assay (Promega, Madison, WI), a colorimetric assay that measures metabolic activity of viable cells. […]"}, "[2]": {"system": "skin wound", "experiment": "Skin wound healing model (splinted wound)", "type": "in vivo, mouse", "details": "day 4; topical 20 μg daily", "from_the_text": "The model has been previously described. Briefly, C57BL/6 female mice (8-10 weeks old) were obtained from Jackson labs (Sacramento, CA). A fresh, full-thickness punch wound (4 mm diameter) using a punch (Acu Punch, Acuderm inc. Ft. Lauderdale, FL) splinted with a sterile neoprene ring (6-mm outer diameter and 4-mm inner diameter), fastened with 5-6 sutures (4-0 nylon) under the influence of Isoflurane was created on the back of the animal in a Class II Biological Safety Cabinet. For all surgical procedures, sterile technique was followed. Buprenorphine was given subcutaneously prior to awakening from anesthesia for anticipated pain. Mice were monitored until fully awake and were housed individually to minimize damage/biting/fighting to the surgical site. […] Treatment agents were prepared in PBS, sterile-filtered and 25 μl solution was applied daily directly to a wound bed for the first 4-5 days under the influence of Isoflurane, followed by daily observation. Wound closure was monitored by regular imaging and the wound area was quantified using ImageJ (National Institutes of Health, Bethesda, MD, USA). […] Epithelial gap was measured histomorphometrically using AxioVision LE Rel.4.4 software. […] Small vessels stained positive for CD31 were counted microscopically on 10 fields (20×) taken around the wound."}}, "data": [{"smiles": "N[C@H](C=O)[C@@H](O)[C@H](O)[C@H](O)CO", "note": "[ManN, 2-Amino-2-deoxy-D-mannose]", "values": [{"measurement": "cellular toxicity, sensitivity among cell types", "setting": "[1]; 5 mM level of ManN", "value": "least sensitive"}, {"measurement": "proliferation of human RPEs", "setting": "[1]; alone or in combination with growth factors", "value": "no increases in proliferation"}, {"measurement": "average closure of the wound", "setting": "[2]", "value": 75.6, "unit": "%"}]}]}
